“Also recorded” adds a separate entry of the source. Each block holds one molecule with its values, some of them ahead of it. Where a SMILES comes first, the peptide text is derived from it. Where no end group is shown, it is not given here.
What was measured:
[1] = system: anti-MBP purified from CSF of MS patients; assay: In vitro neutralization of purified anti-MBP (liquid phase assay, then solid phase radioimmunoassay); format: binding, human; conditions: for REACTIVITY WITH ANTI-MBP: purified anti-MBP, h-MBP 0-1000 ng, peptides 0-10,000 ng, 1.5 hours incubation; for neutralization of purified anti-MBP: pooled anti-MBP from 10 MS patients, FIG. 2; for neutralization of anti-MBP purified from individual patients: anti-MBP from 7 individual MS patients, FIG. 3; for times less effective on a molar basis than intact MBP at causing inhibition: peptides giving complete inhibition
Excerpt: Purified MBP was coupled to CNBr-activated Sepharose 4B (Pharmacia™) according to the manufacturer's instructions. Purified CSF IgG containing increased anti-MBP levels from 35 patients with acute MS relapses was used to isolate anti-MBP by MBP-Sepharose affinity chromatography (Warren, K. G. and Catz, I., J Neurol Sci 103:90-96, 1991). Purified anti-MBP samples were compared with the initial IgG source by poly-acrylamide gel electrophoresis. When purified anti-MBP samples were absorbed to zero with MBP, the post-absorption supernatants contained no residual IgG indicating the purity of anti-MBP.
Constant amounts of anti-MBP (15 radioactivity binding units corresponding to 100 for scale expansion purposes=% 0) were incubated with increasing amounts of h-MBP (0-1000 ng) or individual peptides of MBP (0-10,000 ng) in a liquid phase assay and after 1.5 hours incubation, free anti-MBP levels were determined in all mixtures. Anti-MBP isolated from 7 individual MS patients or pooled anti-MBP from 10 different MS patients were used in neutralization experiments. […] Another mouse monoclonal antibody to epitope 45-50 was used as negative antibody control.
Anti-MBP levels were determined by a solid phase radioimmunoassay with human MBP (Warren, K. G. and Catz, I., Ann Neurol 209:20-25, 1986; Warren, K. G. and Catz, I., Ann Neurol 21:183-187, 1987; and Warren, K. G. and Catz, I., J Neurol Sci 91:143-151, 1989). Free anti-MBP levels were measured in all fractions from affinity chromatography and in all neutralization mixtures. All individual samples were run in quadruplicate using the same iodinated material in order to minimize between-assay variability.

[2] = Safety monitoring of MS patients after peptide administration; format: in vivo, human
[3] = Solubility of peptides
[4] = system: CSF anti-MBP; assay: Intrathecal peptide administration to MS patients, CSF anti-MBP by radioimmunoassay; format: in vivo, human
Procedure: Anti-MBP levels were determined by a solid phase radioimmunoassay with human MBP coated on Immulon microtiter wells. Immulon microtiter wells were coated with 100 μl of 10 μg/ml of MBP (1 μg/well) and incubated overnight at 37° C. After quenching with bovine serum albumin (BSA) and three water washes, the wells were stored at room temperature. Samples of 100 μl of CSF or tissue extracts diluted to 0.010 gm of IgG/l (with 0.01 M Barbitol Buffered Saline (BBS) pH 6.9-7.1, 0.5% BSA and 0.05% Tween 20) were incubated in MBP-coated wells for 1-2 hours at room temperature. After 5 buffer washes (with 0.01 M BBS, 0.5 BSA and 0.05% Tween 20), wells were incubated with goat […] IgG-Fc specific (in 0.01 M BBS, 0.05% Tween 20, 0.5% BSA) for 1 hour at room temperature and then rinsed as above. Finally, ^125I-protein A (or ^125I-protein G) was added and incubated for 1 hour at room temperature. When ^125I-protein G was used as a tracer, ovalbumin replaced BSA in assay buffer and for quenching. After three final water washes wells were individually counted. Results are expressed in radioactivity defined as: (counts of sample−counts of blank)÷(counts of total radioactivity−counts of blank). All samples are run in 10 replicate and counting time is 10 minutes in order to collect>10,000 counts for any positive sample.
Prior to being assayed all CSF and/or tissue samples were diluted to a final IgG concentration of 0.010 g/l. F anti-MBP was detected directly in CSF or tissue extract while B levels of antibody were determined following acid hydrolysis of immune complexes with glycine HCl buffer pH 2.2. […] For epitope localization, synthetic peptides were firstly reacted with purified antibody in a liquid phase competitive assay and then anti-MBP was determined by radioimmunoassay in all resulting supernatants. Results of the combined competitive binding assay and radioimmunoassay were expressed as percent inhibition of synthetic peptide defined as 100—radioactivity units. Samples were done in 10 replicates and counted for 10 minutes each in a LKB1275 Minigamma counter. […]
A Phase 1 experiment to determine the effect of synthetic peptide MBP75-95 on F and B titers of CSF anti-MBP was conducted. […] After obtaining informed consent, 14 patients volunteered for this study; eight patients were selected on the basis of their initial titre of F CSF anti-MBP (above 8 radioactivity units) (Table 2) to receive one intrathecal injection of either peptide MBP75-95 which bound anti-MBP in vitro or a non-binding control peptide MBP35-58 (Warren and Catz, 1993b). […] Cell counts, total protein, glucose, IgG and albumin levels were determined in all CSF samples obtained. F and B anti-MBP levels were determined by radioimmunoassay, as described above. […]

[5] = biological target: purified B (bound) anti-MBP from MS brain tissue; assay: liquid-phase competitive inhibition + solid-phase RIA on human MBP (FIG. 10)
[6] = biological target: purified F (free) anti-MBP from MS brain tissue; assay: as above
[7] = biological target: free (F) anti-MBP in the CSF of MS patients; assay: cell-based or functional assay
[8] = biological target: purified anti-MBP (antibodies to human myelin basic protein purified from CSF of multiple sclerosis patients; pooled from 10 different patients); assay: liquid-phase neutralization + solid-phase RIA on human MBP; reference intact MBP
[9] = biological target: purified B (bound) anti-MBP from MS brain tissue; assay: competitive inhibition assays using a series of 41 decapeptides

Molecule: 26-40: synthetic peptide of human MBP sequence 26-40 (HGFLPRHRDTGILDS)
- REACTIVITY WITH ANTI-MBP [1]: −

Molecule: 117-129: synthetic peptide of human MBP sequence 117-129 (GAEGQRPGFGYGG)
- REACTIVITY WITH ANTI-MBP [1]: −

Molecule: 141-155: synthetic peptide of human MBP sequence 141-155 (FKGVDAQGTLSKIFK)
- REACTIVITY WITH ANTI-MBP [1]: −

Molecule: CC[C@H](C)[C@H](NC(=O)[C@H](CC(N)=O)NC(=O)[C@H](CCCCN)NC(=O)[C@H](Cc1ccccc1)NC(=O)[C@H](Cc1ccccc1)NC(=O)[C@H](Cc1c[nH]cn1)NC(=O)[C@@H](NC(=O)[C@@H](NC(=O)[C@@H]1CCCN1C(=O)[C@H](CC(N)=O)NC(=O)[C@H](CCC(=O)O)NC(=O)[C@H](CC(=O)O)NC(=O)[C@H](CCC(N)=O)NC(=O)[C@@H](NC(=O)[C@H](CCCNC(=N)N)NC(=O)CNC(=O)[C@H](Cc1c[nH]cn1)NC(=O)[C@H](CO)NC(=O)[C@@H](N)CCCCN)[C@@H](C)O)C(C)C)C(C)C)C(=O)N[C@H](C(=O)N[C@H](C(=O)O)[C@@H](C)O)C(C)C [MBP75-95] (H-KSHGRTQDENPVVHFFKNIVT-OH; N-terminus and C-terminus assumed)
- adverse effects ([2]; 500 mg intravenously over 30 minutes, patient 8M41): No adverse effects were observed
- systemic complications (electrolytes, cardiac-liver-kidney dysfunction, hematology) ([2]; repeated intrathecal inoculations): no adverse complications have occurred

- solubility in normal saline [3]: very low solubility
Molecule: CC[C@H](C)[C@H](NC(=O)[C@H](CC(N)=O)NC(=O)[C@H](CCCCN)NC(=O)[C@H](Cc1ccccc1)NC(=O)[C@H](Cc1ccccc1)NC(=O)[C@H](Cc1c[nH]cn1)NC(=O)[C@@H](NC(=O)[C@@H](N)C(C)C)C(C)C)C(=O)N[C@H](C(=O)N[C@H](C(=O)O)[C@@H](C)O)C(C)C [MBP86-95] (H-VVHFFKNIVT-OH; N-terminus and C-terminus assumed)

Molecule: Cy 4-18: synthetic peptide of human MBP sequence 4-18 with unnatural cysteine residue (CKRPSQRHGSKYLATA)
- REACTIVITY WITH ANTI-MBP [1]: −

Molecule: Cy 11-24: synthetic peptide of human MBP sequence 11-24 with unnatural cysteine residue (CGSKYLATASTMDHA)
- REACTIVITY WITH ANTI-MBP [1]: −

Molecule: Cy 51-64 Gly: synthetic peptide of human MBP sequence 51-64 with added Cy and Gly (CAPKRGSGKDSHHPAG)
- REACTIVITY WITH ANTI-MBP [1]: +

Molecule: Cy 127-140: synthetic peptide of human MBP sequence 127-140 with unnatural cysteine residue (CYGGRASDYKSAHKG)
- REACTIVITY WITH ANTI-MBP [1]: −

Molecule: Cy 136-149: synthetic peptide of human MBP sequence 136-149 with unnatural cysteine residue (CSAHKGFKGVDAQGT)
- REACTIVITY WITH ANTI-MBP [1]: −

Molecule: HHPARTAHYGSLPQK [MBP61-75]
- neutralization of purified anti-MBP [1]: partially neutralized
- REACTIVITY WITH ANTI-MBP [1]: +

Molecule: KNIVTPRTPPPSQGKG [MBP91-106]
- neutralization of anti-MBP purified from individual patients [1]: completely neutralized
- times less effective on a molar basis than intact MBP at causing inhibition [1]: approximately 100 times
- neutralization of purified anti-MBP [1]: completely neutralized
- REACTIVITY WITH ANTI-MBP [1]: −

Molecule: MBP35-58: non-binding, control synthetic peptide of human MBP, residues 35-58 (TGILDSIGRFFGGDRGAPKRGSGK)
- REACTIVITY WITH ANTI-MBP [1]: −
- CSF F anti-MBP ([4]; single intrathecal injection 5 mg): remained elevated at baseline level
- CSF F anti-MBP ([4]; single intrathecal injection 10 mg, chronic progressive MS): persistently elevated
- F and B levels of CSF anti-MBP ([4]; single intrathecal injection 1, 2.5, 5 or 10 mg, 24 hour experiment, chronic progressive MS): remained unchanged; also recorded: remained unaffected
- CSF F (free) anti-MBP ([4]; single intrathecal injection, increasing amounts 1-10 mg, chronic progressive MS): did not react

Molecule: Thr Gln Asp Glu Asn Pro Val Val His Phe Phe Lys Asn Ile Val Thr Pro Arg (CTQDENPVVHFFKNIVTPRG) [MBP80-97]
- neutralization of anti-MBP purified from individual patients [1]: completely neutralized
- times less effective on a molar basis than intact MBP at causing inhibition [1]: approximately 100 times
- neutralization of purified anti-MBP [1]: completely neutralized
- REACTIVITY WITH ANTI-MBP [1]: ++

Molecule: YGSLPQKSHGRTQDE [MBP69-83]
- neutralization of purified anti-MBP [1]: partially neutralized
- REACTIVITY WITH ANTI-MBP [1]: ++

- percent inhibition [5]: > 80%
- percent inhibition [6]: > 80%
Molecule: NPVVHFFKNI [decapeptide MBP84-93]

- percent inhibition [5]: 100%
- percent inhibition [6]: 100%
- decrease in F anti-MBP level in CSF after one intrathecal injection of 1 mg MBP75-95 (patient 6F53) [7]: 75%
Molecule: KSHGRTQDENPVVHFFKNIVT [synthetic peptide MBP75-95 (Example 2 and later)]

- times less effective on a molar basis than intact MBP at causing inhibition [8]: 100 times
Molecule: CTQDENPVVHFFKNIVTPRG [peptide MBP80-97 (Cy 80-97 Gly)]

- times less effective on a molar basis than intact MBP at causing inhibition [8]: 100 times
Molecule: CKNIVTPRTPPPSQGKG [peptide MBP91-106 (Cy 91-106)]

- times less effective on a molar basis than intact MBP at causing inhibition [8]: 100 times
Molecule: CKSHGRTQDENPVVHFFKNIVT [peptide MBP75-95 (Cy 75-95, Example 1)]

- percent inhibition [5]: > 80%
- percent inhibition [6]: > 80%
Molecule: VHFFKNIVTP [decapeptide MBP87-96]

- percent inhibition [5]: > 80%
- percent inhibition [6]: > 80%
Molecule: PVVHFFKNIV [decapeptide MBP85-94]

- percent inhibition [5]: > 80%
- percent inhibition [6]: > 80%
- percent inhibition [9]: > 95%
Molecule: VVHFFKNIVT [decapeptide MBP86-95]
